Patent publication US10617693B2, “Methods of treating and/or preventing actinic keratosis” (Athenex, Inc., priority 2017, dated 2020)

Test system: subjects with AK on the face or scalp
Assay: Phase 2a study KX01-AK-002: local skin reactions (grade 0 not present to 4 worst) and adverse events, 0.5 mg KX-01 on 25 cm^2
Assay type: in vivo, human
Excerpt: An ongoing Phase 2a, open-label, multicenter, activity and safety study of KX-01 administered topically in subjects with AK on the face or scalp is described herein. […] Secondary objectives are to assess the activity of KX-01 administered topically during Days 1-57 based on reduction of AK lesion counts from baseline, assess the safety and tolerability and pharmacokinetics, and contrast the dose regimens (5-day treatment with 3-day treatment) in terms of activity and safety in subjects with AK on the face or scalp. This uncontrolled, nonrandomized trial is being conducted at 16 investigational sites in the United States. Enrollment is sequential for 2 cohorts of approximately 80 subjects each. Enrollment is closed for Cohort 1 and ongoing for Cohort 2. The two treatment cohorts are summarized below: • Cohort 1: 0.5 mg KX-01 administered topically to a contiguous treatment area of 25 cm^2 with 4-8 clinically typical AK lesions for 5 consecutive days • Cohort 2: 0.5 mg KX-01 administered topically to a contiguous treatment area of 25 cm^2 with 4-8 clinically typical AK lesions for 3 consecutive days
0.5 mg KX-01 is administered topically to an area of 25 cm^2 on the face or scalp by site staff on treatment days. […] AK lesion counts are recorded at baseline, days 8, 15, 29, and 57. […] Standardized photography of treatment area is performed at baseline, day 8 and day 57. Plasma samples are being collected at preplanned time points on days 1 and 5 for Cohort 1, and on days 1 and 3 for Cohort 2.
Absence or presence of hyperpigmentation, hypopigmentation and scarring are also assessed. Application site reactions not classified as LSRs are reported as AEs. […] LSRs and AEs are reported separately. All LSRs, pigmentation, and scarring in the treatment area will be followed to resolution or stabilization.
The range of possible composite scores is 0-24.
The Phase 2a trial described in Example 2a was completed with 84 eligible subjects enrolled in each of two cohorts: one cohort was subjected to the treatment for 5 consecutive days, and the other cohort was subjected to the treatment for 3 consecutive days. The results are described below and in FIG. 5.

[1] = Cohort 1 (5-day), 67 subjects with day 57 visit

O=C(Cc1ccc(-c2ccc(OCCN3CCOCC3)cc2)cn1)NCc1ccccc1 [KX-01]
Subjects with no LSR in the treatment area throughout the study [1]: 7 | Subjects with vesiculation/pustulation [1]: Three | Number of TEAEs considered related to KX-01 (Cohort 1 (5-day), N=82): 12 | Subjects reporting TEAEs considered related to KX-01 (Cohort 1 (5-day), N=82): Seven | Total number of TEAEs (Cohort 1 (5-day), N=82): 54 | Cases of application site reaction (Cohort 1 (5-day), N=82, mild tenderness, stinging, pruritus): 6 | Subjects whose LSRs had not returned to baseline at day 57 (Cohort 1 (5-day), of 60 subjects with LSRs): 8 | Number of SAEs (Cohort 1 (5-day), in 2 subjects, none considered related to study drug): 3 | Crusting grade 0, n/N subjects (Day 1, Cohort 1 (5-day)): 62/67 | Crusting grade 1, n/N subjects (Day 1, Cohort 1 (5-day)): 5/67 | Crusting grade 2, n/N subjects (Day 1, Cohort 1 (5-day)): 0 | Crusting grade 3, n/N subjects (Day 1, Cohort 1 (5-day)): 0 | Crusting grade 4, n/N subjects (Day 1, Cohort 1 (5-day)): 0 | Erosion/Ulceration grade 0, n/N subjects (Day 1, Cohort 1 (5-day)): 67/67 | Erosion/Ulceration grade 1, n/N subjects (Day 1, Cohort 1 (5-day)): 0 | Erosion/Ulceration grade 2, n/N subjects (Day 1, Cohort 1 (5-day)): 0 | Erosion/Ulceration grade 3, n/N subjects (Day 1, Cohort 1 (5-day)): 0 | Erosion/Ulceration grade 4, n/N subjects (Day 1, Cohort 1 (5-day)): 0 | Erythema grade 0, n/N subjects (Day 1, Cohort 1 (5-day)): 56/67 | Erythema grade 1, n/N subjects (Day 1, Cohort 1 (5-day)): 11/67 | Erythema grade 2, n/N subjects (Day 1, Cohort 1 (5-day)): 0 | Erythema grade 3, n/N subjects (Day 1, Cohort 1 (5-day)): 0 | Erythema grade 4, n/N subjects (Day 1, Cohort 1 (5-day)): 0 | Flaking/Scaling grade 0, n/N subjects (Day 1, Cohort 1 (5-day)): 55/67 | Flaking/Scaling grade 1, n/N subjects (Day 1, Cohort 1 (5-day)): 12/67 | Flaking/Scaling grade 2, n/N subjects (Day 1, Cohort 1 (5-day)): 0 | Flaking/Scaling grade 3, n/N subjects (Day 1, Cohort 1 (5-day)): 0 | Flaking/Scaling grade 4, n/N subjects (Day 1, Cohort 1 (5-day)): 0 | Swelling grade 0, n/N subjects (Day 1, Cohort 1 (5-day)): 67/67 | Swelling grade 1, n/N subjects (Day 1, Cohort 1 (5-day)): 0 | Swelling grade 2, n/N subjects (Day 1, Cohort 1 (5-day)): 0 | Swelling grade 3, n/N subjects (Day 1, Cohort 1 (5-day)): 0 | Swelling grade 4, n/N subjects (Day 1, Cohort 1 (5-day)): 0 | Vesiculation/Pustulation grade 0, n/N subjects (Day 1, Cohort 1 (5-day)): 67/67 | Vesiculation/Pustulation grade 1, n/N subjects (Day 1, Cohort 1 (5-day)): 0 | Vesiculation/Pustulation grade 2, n/N subjects (Day 1, Cohort 1 (5-day)): 0 | Vesiculation/Pustulation grade 3, n/N subjects (Day 1, Cohort 1 (5-day)): 0 | Vesiculation/Pustulation grade 4, n/N subjects (Day 1, Cohort 1 (5-day)): 0 | Crusting grade 0, n/N subjects (Day 2, Cohort 1 (5-day)): 64/67 | Crusting grade 1, n/N subjects (Day 2, Cohort 1 (5-day)): 2/67 | Crusting grade 2, n/N subjects (Day 2, Cohort 1 (5-day)): 1/67 | Crusting grade 3, n/N subjects (Day 2, Cohort 1 (5-day)): 0 | Crusting grade 4, n/N subjects (Day 2, Cohort 1 (5-day)): 0 | Erosion/Ulceration grade 0, n/N subjects (Day 2, Cohort 1 (5-day)): 67/67 | Erosion/Ulceration grade 1, n/N subjects (Day 2, Cohort 1 (5-day)): 0 | Erosion/Ulceration grade 2, n/N subjects (Day 2, Cohort 1 (5-day)): 0 | Erosion/Ulceration grade 3, n/N subjects (Day 2, Cohort 1 (5-day)): 0 | Erosion/Ulceration grade 4, n/N subjects (Day 2, Cohort 1 (5-day)): 0 | Erythema grade 0, n/N subjects (Day 2, Cohort 1 (5-day)): 44/67 | Erythema grade 1, n/N subjects (Day 2, Cohort 1 (5-day)): 20/67 | Erythema grade 2, n/N subjects (Day 2, Cohort 1 (5-day)): 3/67 | Erythema grade 3, n/N subjects (Day 2, Cohort 1 (5-day)): 0 | Erythema grade 4, n/N subjects (Day 2, Cohort 1 (5-day)): 0 | Flaking/Scaling grade 0, n/N subjects (Day 2, Cohort 1 (5-day)): 51/67 | Flaking/Scaling grade 1, n/N subjects (Day 2, Cohort 1 (5-day)): 15/67 | Flaking/Scaling grade 2, n/N subjects (Day 2, Cohort 1 (5-day)): 1/67 | Flaking/Scaling grade 3, n/N subjects (Day 2, Cohort 1 (5-day)): 0 | Flaking/Scaling grade 4, n/N subjects (Day 2, Cohort 1 (5-day)): 0 | Swelling grade 0, n/N subjects (Day 2, Cohort 1 (5-day)): 67/67 | Swelling grade 1, n/N subjects (Day 2, Cohort 1 (5-day)): 0 | Swelling grade 2, n/N subjects (Day 2, Cohort 1 (5-day)): 0 | Swelling grade 3, n/N subjects (Day 2, Cohort 1 (5-day)): 0 | Swelling grade 4, n/N subjects (Day 2, Cohort 1 (5-day)): 0 | Vesiculation/Pustulation grade 0, n/N subjects (Day 2, Cohort 1 (5-day)): 67/67 | Vesiculation/Pustulation grade 1, n/N subjects (Day 2, Cohort 1 (5-day)): 0 | Vesiculation/Pustulation grade 2, n/N subjects (Day 2, Cohort 1 (5-day)): 0 | Vesiculation/Pustulation grade 3, n/N subjects (Day 2, Cohort 1 (5-day)): 0 | Vesiculation/Pustulation grade 4, n/N subjects (Day 2, Cohort 1 (5-day)): 0 | Crusting grade 0, n/N subjects (Day 3, Cohort 1 (5-day)): 63/67 | Crusting grade 1, n/N subjects (Day 3, Cohort 1 (5-day)): 3/67 | Crusting grade 2, n/N subjects (Day 3, Cohort 1 (5-day)): 1/67 | Crusting grade 3, n/N subjects (Day 3, Cohort 1 (5-day)): 0 | Crusting grade 4, n/N subjects (Day 3, Cohort 1 (5-day)): 0 | Erosion/Ulceration grade 0, n/N subjects (Day 3, Cohort 1 (5-day)): 66/67 | Erosion/Ulceration grade 1, n/N subjects (Day 3, Cohort 1 (5-day)): 1/67 | Erosion/Ulceration grade 2, n/N subjects (Day 3, Cohort 1 (5-day)): 0 | Erosion/Ulceration grade 3, n/N subjects (Day 3, Cohort 1 (5-day)): 0 | Erosion/Ulceration grade 4, n/N subjects (Day 3, Cohort 1 (5-day)): 0 | Erythema grade 0, n/N subjects (Day 3, Cohort 1 (5-day)): 32/67 | Erythema grade 1, n/N subjects (Day 3, Cohort 1 (5-day)): 24/67 | Erythema grade 2, n/N subjects (Day 3, Cohort 1 (5-day)): 10/67 | Erythema grade 3, n/N subjects (Day 3, Cohort 1 (5-day)): 1/67 | Erythema grade 4, n/N subjects (Day 3, Cohort 1 (5-day)): 0 | Flaking/Scaling grade 0, n/N subjects (Day 3, Cohort 1 (5-day)): 46/67 | Flaking/Scaling grade 1, n/N subjects (Day 3, Cohort 1 (5-day)): 14/67 | Flaking/Scaling grade 2, n/N subjects (Day 3, Cohort 1 (5-day)): 5/67 | Flaking/Scaling grade 3, n/N subjects (Day 3, Cohort 1 (5-day)): 2/67 | Flaking/Scaling grade 4, n/N subjects (Day 3, Cohort 1 (5-day)): 0 | Swelling grade 0, n/N subjects (Day 3, Cohort 1 (5-day)): 67/67 | Swelling grade 1, n/N subjects (Day 3, Cohort 1 (5-day)): 0 | Swelling grade 2, n/N subjects (Day 3, Cohort 1 (5-day)): 0 | Swelling grade 3, n/N subjects (Day 3, Cohort 1 (5-day)): 0 | Swelling grade 4, n/N subjects (Day 3, Cohort 1 (5-day)): 0
